# In publication PMC11823679, “Protamine protects against vancomycin-induced kidney injury” (Antimicrobial Agents and Chemotherapy, 2025):
# “Also recorded” adds a separate entry of the source.
# Tests used:
# [1] = test system: Urinary KIM-1; experiment: Urinary KIM-1 kidney injury in rats given vancomycin and/or protamine
# Procedure: Male Sprague-Dawley rats (n = 19; age 8–10 weeks; 268–304 g; Envigo, Indianapolis, IN, USA) underwent double jugular catheterization ([33]) (Fig. 3A). Surgery was performed under ketamine (100 mg/kg of body weight) and xyalzine (10 mg/kg of body weight) anesthesia with buprenorphine (0.02 mg/kg of body weight) given post-operatively for pain management. Animals were allowed to recover 4 days before the administration of any drug. Animals were housed in metabolic cages starting 1 day prior to day 0 with access to food and water ad libitum for the duration of the study (Fig. 3B).
# Animals were divided into three experimental treatment protocols. Using a dedicated jugular vein for dosing, the animals received clinical grade intravenous protamine and/or vancomycin in doses allometrically scaled to humans according to the following protocols: (i) protamine sulfate (1.5 mg/kg of body weight) and vancomycin (150 mg/kg of body weight) (n = 6); (ii) protamine only (1.5 mg/kg of body weight) with saline sham (sham for volume of vancomycin) (n = 7); or (iii) vancomycin only (150 mg/kg of body weight) with saline sham (sham for volume of protamine) (n = 6) ([34][–][36]). Saline sham was given to match the volumes of protamine and vancomycin doses to maintain euvolemia. On day 0, all animals received only iohexol (51.8 mg/day) intravenously to establish baseline GFR measurements. Drugs were administered as described above by treatment protocols to all groups on days 1–4. Infusion times for each of the drugs include (i) protamine sulfate, 5 minutes; (ii) vancomycin and iohexol, 2 minutes; and (iii) saline sham, 5 or 2 minutes depending on what the sham was replacing.
# Urine samples were collected daily, and volumes were measured starting from day 0 to day 4. Samples were centrifuged at 500 g for 10 minutes, and the resulting supernatant was aliquoted (1.5 mL) and stored at −80°C for renal biomarker analysis later.
# Urinary samples were analyzed for KIM-1 using the Milliplex MAP Rat Kidney Toxicity Magnetic Bead Panel 1 (EMD Millipore Corporation, Charles, MO, USA) according to the manufacturer’s directions and as previously described ([34], [36], [37]). Briefly, neat urine aliquots were mixed with monoclonal antibody-coated magnetic microbeads (Bead Panel 1) and run on a 96-well plate, which also included a standard curve. Biomarker data were acquired, and concentrations were analyzed using Belysa Immunoassay Curve-Fitting Software V1 (MilliporeSigma, Darmstadt, Germany). The amount of urinary KIM-1 excreted over the 24-h collection period was obtained by multiplying the urinary concentration by 24-h urinary volume.
# An omnibus test, i.e., joint tests (multi-degree of freedom) of the interaction and main effects, which is similar to the F test in ANOVA, was used initially (STATA 17.0 BE, StataCorp LLC, College Station, TX, USA). Only models with significant interaction at P < 0.05 were selected for post hoc analysis (i.e., identification of the difference between treatment groups and days). Margins were calculated for a full factorial of the variables, i.e., main effects for each variable and interactions. Referent groups were pre-treatment baseline values and protamine alone as a treatment, except where noted. […] LOWESS graphs were produced in R version 4.2.2 using ggplot2. […] All tests were two-tailed; a P < 0.05 was required for statistical significance. Graphs for cellular studies were generated using GraphPad version 9.3.1 and were fit with a log(inhibitor) vs normalized response function after log transformation.
# [2] = test system: OCT2; experiment: OCT2 inhibition study (HEK cells, metformin substrate); assay type: cell-based; conditions: for Inhibition of OCT2 (in words): metformin 100 µM
# Procedure: (§1) Organic anion transporter (OAT1 and OAT3) and OCT2 inhibition studies with protamine sulfate were performed by Eurofins Scientific (St. Charles, MO, USA) as previously described ([38], [39]). Protamine sulfate was dissolved in DMSO to 1.0E-02 M and tested concurrently with p-aminohippurate 10 µM (substrate) for OAT1, ranitidine 10 µM (substrate) for OAT3, and metformin 100 µM (substrate) for OCT2. A pre-incubation time of 30 minutes was used, followed by 20 minutes of incubation with the substrate. CHOK1 cells were used in OAT1 and 3 experiments, and HEK cells were used in OCT2 experiments. The percentage of inhibition was calculated vs the percentage of control. The IC50 value (concentration causing a half-maximal inhibition of the control value) was determined by nonlinear regression analysis of the concentration-response curve from a Hill equation.
# (§2) No data were excluded as outliers.
# [3] = test system: opossum kidney cells; conditions: cited from earlier work
# Text: Based on chemical structure, we hypothesized that protamine might block megalin and decrease VAN. While relatively little information is available on the megalin-binding capacity of protamine, protamine shares binding sites with heparin (which is the current target for FDA-approved use) and megalin ([30], [31]). […] Megalin antagonists ... || Originally derived from salmon fish sperm (salmine), protamine is a highly positively charged protein consisting of 32 amino acids. Currently, it is widely used as an effective agent to neutralize heparin using electrostatic bonds made between the cationic arginine groups of protamine and the anionic heparin in a 1:1 ratio ([6]). Specifically, protamine shares binding sites with heparin (current target for FDA-approved use) and megalin ([30], [31]). On this note, a clinical limitation for the use of protamine arises for patients who require heparin infusions, such as post-diabetic foot infecti ...
# [4] = test system: OAT1; experiment: OAT1 inhibition study (CHOK1 cells, p-aminohippurate substrate); assay type: cell-based; conditions: for Inhibition of OAT1 (in words): p-aminohippurate 10 µM
# Procedure: as §1, §2
# [5] = test system: OAT3; experiment: OAT3 inhibition study (CHOK1 cells, ranitidine substrate); assay type: cell-based; conditions: for Inhibition of OAT3 (in words): ranitidine 10 µM
# Procedure: as §1, §2
# [6] = in vivo; cited from earlier work
# Procedure: Additional work i ... || Despite the promise of protamine as a new treatment approach, this study is subject to several limitations. First, our study was performed in rats. While the rat model has shown strong relevance to the human condition ([14]) with respect to VAN, clinical trials are necessary to confirm the effect. Second, protamine delayed kidney injury by 1–3 days; however, a multi-pronged approach may be needed to fully suppress injury in vancomycin therapy that exceeds 2 days. Third, as noted above, protamine is not a viable therapeutic for patients who require heparin. Fourth, protamine itself is associate ...
# [7] = CHOK1 cells, listed as protamine
substance,measurement,setting,value
Protamine,Protective effect against vancomycin-associated nephrotoxicity (in words),[1]; addition of protamine to vancomycin,provides a protective effect against vancomycin-associated nephrotoxicity
same,Delay of vancomycin-induced kidney injury as defined by urinary KIM-1,[1]; protamine added to vancomycin therapy,1 to 3 days
same,KIM-1 change from baseline of day 1 (in words),"[1]; rat, in vivo",did not have a KIM-1 increase over the 4 days
same,KIM-1 compared to protamine alone (in words),"[1]; rat, in vivo",did not experience this increase on day 2
same,KIM-1 compared to vancomycin alone (in words),"[1]; rat, in vivo",numerically similar to animals that received vancomycin alone
same,Injury prevention (in words),"[1]; urinary KIM-1, protamine with vancomycin",a full day of injury prevention
same,Inhibition of OCT2 (in words),[2]; HEK cells,"does not appear to have significant inhibition on OAT1, OAT3, or OCT2"
same,IC50,"[2]; HEK cells, metformin 100 µM substrate, pre-incubation 30 minutes, 20 minutes with substrate, protamine sulfate in DMSO, Eurofins",43 µM
same,Inhibition of OCT2 (in words),"[2]; HEK cells, listed as protamine","No substantial inhibition; also recorded: does not have a significant inhibition on OAT1, OAT3, or OCT2 except at extremely high concentrations; also recorded: minor inhibition"
same,IC50 ratio protamine vs verapamil,[2]; OCT2,5.2 times higher
same,Inhibition of OCT-2,"[2]; at similar concentrations (to 0.1 mM) of protamine, Fig. 6",at least 50%
same,Entry into kidney epithelial cells (in words),[3],enters kidney epithelial cells and localizes in the cytoplasm via receptor-mediated endocytosis
same,Inhibition of gentamicin uptake (in words),"[3]; cultured opossum kidney cells that expressed megalin and cubilin, ref Nagai and colleagues ([32])",inhibited the uptake of gentamicin
same,Prevention of gentamicin accumulation (in words),[3]; kidney epithelial cells,has demonstrated prevention of gentamicin accumulation
same,Inhibition of OAT1 (in words),[4]; CHOK1 cells,"does not appear to have significant inhibition on OAT1, OAT3, or OCT2"
same,IC50,"[4]; CHOK1 cells, p-aminohippurate 10 µM substrate, pre-incubation 30 minutes, 20 minutes with substrate, protamine sulfate in DMSO, Eurofins",100 µM
same,Inhibition of OAT1 (in words),[4]; [7],"No substantial inhibition; also recorded: does not have a significant inhibition on OAT1, OAT3, or OCT2 except at extremely high concentrations; also recorded: little to no inhibition"
same,IC50 ratio protamine vs probenecid,[4]; OAT1,62.5 times higher
same,Inhibition of OAT-1,"[4]; at 0.1 mM protamine, Fig. 6",< 50%
same,Inhibition of OAT3 (in words),[5]; CHOK1 cells,"does not appear to have significant inhibition on OAT1, OAT3, or OCT2"
same,IC50,"[5]; CHOK1 cells, ranitidine 10 µM substrate, pre-incubation 30 minutes, 20 minutes with substrate, protamine sulfate in DMSO, Eurofins",100 µM
same,Inhibition of OAT3 (in words),[5]; [7],"No substantial inhibition; also recorded: does not have a significant inhibition on OAT1, OAT3, or OCT2 except at extremely high concentrations; also recorded: little to no inhibition"
same,IC50 ratio protamine vs probenecid,[5]; OAT3,58.8 times higher
same,Inhibition of OAT-3,"[5]; at 0.1 mM protamine, Fig. 6",< 50%
same,Safety liabilities (in words),[6],severe hypotension and anaphylactoid-like reactions
same,Toxicities (in words),[6],cardiopulmonary dysfunction and shock as well as antibody-mediated hypersensitivity reactions
